Tests used:
Experiment in all cases: biochemical
Design in all cases: species or system HEK293/K-562/placenta mixed human extract; Kinobeads chemoproteomic competition binding, quantified by TMT LC-MS/MS, dose response up to 20 uM
PTK2B = PTK2B (Homo sapiens, UniProt Q14289)
PHKG2 = PHKG2 (Homo sapiens, UniProt P15735)
CDK7 = CDK7 (Homo sapiens, UniProt P50613)
TP53RK = TP53RK (Homo sapiens, UniProt Q96S44)
TAOK3 = TAOK3 (Homo sapiens, UniProt Q9H2K8)
TBK1 = TBK1 (Homo sapiens, UniProt Q9UHD2)
RPS6KA6 = RPS6KA6 (Homo sapiens, UniProt Q9UK32)
IRAK3 = IRAK3 (Homo sapiens, UniProt Q9Y616)
IRAK1 = IRAK1 (Homo sapiens, UniProt P51617)
RAF1 = RAF1 (Homo sapiens, UniProt P04049)
CHEK2 = CHEK2 (Homo sapiens, UniProt O96017)
EPHA7 = EPHA7 (Homo sapiens, UniProt Q15375)
CHUK = CHUK (Homo sapiens, UniProt O15111)
CDK5 = CDK5 (Homo sapiens, UniProt Q00535)
LATS1 = LATS1 (Homo sapiens, UniProt O95835)
HIPK2 = HIPK2 (Homo sapiens, UniProt Q9H2X6)
ULK3 = ULK3 (Homo sapiens, UniProt Q6PHR2)
FES = FES (Homo sapiens, UniProt P07332)
CSNK1A1 = CSNK1A1 (Homo sapiens, UniProt P48729)
NUAK1 = NUAK1 (Homo sapiens, UniProt O60285)
NEK1 = NEK1 (Homo sapiens, UniProt Q96PY6)

IRAK1, sequence (P51617 whole entry): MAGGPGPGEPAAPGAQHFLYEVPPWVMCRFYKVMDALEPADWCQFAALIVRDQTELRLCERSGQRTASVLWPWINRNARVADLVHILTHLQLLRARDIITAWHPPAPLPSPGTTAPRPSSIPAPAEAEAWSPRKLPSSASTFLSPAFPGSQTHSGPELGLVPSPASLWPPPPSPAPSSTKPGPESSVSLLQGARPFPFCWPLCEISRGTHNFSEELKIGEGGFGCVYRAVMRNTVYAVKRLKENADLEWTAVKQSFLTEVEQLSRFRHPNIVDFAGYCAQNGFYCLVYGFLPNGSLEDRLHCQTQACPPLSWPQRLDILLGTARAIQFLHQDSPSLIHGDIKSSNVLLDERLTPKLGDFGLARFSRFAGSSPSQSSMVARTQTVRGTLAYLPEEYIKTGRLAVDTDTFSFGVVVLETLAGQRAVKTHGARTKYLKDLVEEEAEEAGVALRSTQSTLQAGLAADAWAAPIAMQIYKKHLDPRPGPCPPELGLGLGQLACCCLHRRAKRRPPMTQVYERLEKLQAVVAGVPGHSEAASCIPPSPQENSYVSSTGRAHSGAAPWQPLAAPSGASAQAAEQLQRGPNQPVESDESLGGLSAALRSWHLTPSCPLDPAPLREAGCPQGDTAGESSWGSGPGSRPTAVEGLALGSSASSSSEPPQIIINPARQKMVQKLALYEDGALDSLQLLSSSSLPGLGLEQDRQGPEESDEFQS
EPHA7, sequence (Q15375 whole entry): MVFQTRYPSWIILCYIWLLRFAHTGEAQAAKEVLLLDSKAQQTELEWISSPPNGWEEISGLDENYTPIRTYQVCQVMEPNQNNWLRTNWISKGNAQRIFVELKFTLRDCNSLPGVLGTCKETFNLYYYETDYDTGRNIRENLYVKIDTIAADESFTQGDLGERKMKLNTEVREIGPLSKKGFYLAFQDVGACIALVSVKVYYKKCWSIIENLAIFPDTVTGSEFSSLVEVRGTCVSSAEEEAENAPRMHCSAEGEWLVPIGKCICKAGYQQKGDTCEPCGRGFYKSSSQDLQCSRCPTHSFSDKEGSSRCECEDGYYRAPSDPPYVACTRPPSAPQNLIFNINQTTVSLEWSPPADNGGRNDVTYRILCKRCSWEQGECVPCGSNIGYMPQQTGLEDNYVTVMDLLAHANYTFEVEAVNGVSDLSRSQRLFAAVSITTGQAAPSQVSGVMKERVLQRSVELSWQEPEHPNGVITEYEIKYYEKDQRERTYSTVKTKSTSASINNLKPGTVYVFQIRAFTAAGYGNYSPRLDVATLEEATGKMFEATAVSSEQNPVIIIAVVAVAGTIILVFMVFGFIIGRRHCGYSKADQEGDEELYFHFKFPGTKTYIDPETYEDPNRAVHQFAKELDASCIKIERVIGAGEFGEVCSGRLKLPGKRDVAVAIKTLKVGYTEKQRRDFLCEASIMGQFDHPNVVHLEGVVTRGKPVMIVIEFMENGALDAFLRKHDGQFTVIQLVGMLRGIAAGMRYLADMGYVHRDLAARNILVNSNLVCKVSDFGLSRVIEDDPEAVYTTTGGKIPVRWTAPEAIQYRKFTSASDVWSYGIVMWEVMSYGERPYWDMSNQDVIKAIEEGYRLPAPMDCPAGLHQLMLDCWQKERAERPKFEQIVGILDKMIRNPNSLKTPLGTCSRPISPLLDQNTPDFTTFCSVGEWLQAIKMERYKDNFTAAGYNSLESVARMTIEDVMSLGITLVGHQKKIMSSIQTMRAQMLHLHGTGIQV
IRAK3, sequence (Q9Y616 whole entry): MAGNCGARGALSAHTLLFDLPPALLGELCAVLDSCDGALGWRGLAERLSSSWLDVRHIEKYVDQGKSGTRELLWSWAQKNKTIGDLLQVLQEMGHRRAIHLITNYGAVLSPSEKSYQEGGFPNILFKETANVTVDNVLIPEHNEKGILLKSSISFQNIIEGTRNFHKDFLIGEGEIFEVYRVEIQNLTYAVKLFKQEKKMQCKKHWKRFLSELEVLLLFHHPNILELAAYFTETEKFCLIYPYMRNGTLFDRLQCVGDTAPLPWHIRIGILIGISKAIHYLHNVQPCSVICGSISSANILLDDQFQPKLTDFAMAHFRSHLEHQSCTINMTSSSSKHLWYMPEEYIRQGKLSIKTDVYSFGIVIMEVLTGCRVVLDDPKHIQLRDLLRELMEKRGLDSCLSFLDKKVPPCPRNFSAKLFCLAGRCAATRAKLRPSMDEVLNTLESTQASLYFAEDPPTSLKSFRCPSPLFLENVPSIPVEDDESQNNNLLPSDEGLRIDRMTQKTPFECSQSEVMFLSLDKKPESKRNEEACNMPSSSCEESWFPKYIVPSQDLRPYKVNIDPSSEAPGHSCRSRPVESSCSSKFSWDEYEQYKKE
RPS6KA6, sequence (Q9UK32 whole entry): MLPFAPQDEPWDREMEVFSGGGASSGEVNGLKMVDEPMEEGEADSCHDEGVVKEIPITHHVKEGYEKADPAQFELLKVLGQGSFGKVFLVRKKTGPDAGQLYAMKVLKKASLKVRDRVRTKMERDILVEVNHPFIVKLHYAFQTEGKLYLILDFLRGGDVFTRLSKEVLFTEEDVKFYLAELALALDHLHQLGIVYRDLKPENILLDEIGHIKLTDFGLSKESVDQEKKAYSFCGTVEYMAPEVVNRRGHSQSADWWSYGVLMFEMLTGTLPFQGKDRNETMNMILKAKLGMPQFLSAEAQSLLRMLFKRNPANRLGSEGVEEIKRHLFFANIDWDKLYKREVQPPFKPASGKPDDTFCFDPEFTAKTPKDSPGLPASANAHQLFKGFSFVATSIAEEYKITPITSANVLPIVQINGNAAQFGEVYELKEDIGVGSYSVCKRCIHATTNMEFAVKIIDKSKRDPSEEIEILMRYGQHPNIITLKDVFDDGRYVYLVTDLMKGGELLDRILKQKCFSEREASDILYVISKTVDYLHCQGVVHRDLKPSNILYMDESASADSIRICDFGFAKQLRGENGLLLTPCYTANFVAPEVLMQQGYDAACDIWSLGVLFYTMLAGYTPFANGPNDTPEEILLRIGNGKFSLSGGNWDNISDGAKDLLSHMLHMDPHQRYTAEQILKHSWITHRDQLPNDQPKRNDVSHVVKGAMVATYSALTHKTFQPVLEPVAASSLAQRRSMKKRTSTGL
HIPK2, sequence (Q9H2X6 whole entry): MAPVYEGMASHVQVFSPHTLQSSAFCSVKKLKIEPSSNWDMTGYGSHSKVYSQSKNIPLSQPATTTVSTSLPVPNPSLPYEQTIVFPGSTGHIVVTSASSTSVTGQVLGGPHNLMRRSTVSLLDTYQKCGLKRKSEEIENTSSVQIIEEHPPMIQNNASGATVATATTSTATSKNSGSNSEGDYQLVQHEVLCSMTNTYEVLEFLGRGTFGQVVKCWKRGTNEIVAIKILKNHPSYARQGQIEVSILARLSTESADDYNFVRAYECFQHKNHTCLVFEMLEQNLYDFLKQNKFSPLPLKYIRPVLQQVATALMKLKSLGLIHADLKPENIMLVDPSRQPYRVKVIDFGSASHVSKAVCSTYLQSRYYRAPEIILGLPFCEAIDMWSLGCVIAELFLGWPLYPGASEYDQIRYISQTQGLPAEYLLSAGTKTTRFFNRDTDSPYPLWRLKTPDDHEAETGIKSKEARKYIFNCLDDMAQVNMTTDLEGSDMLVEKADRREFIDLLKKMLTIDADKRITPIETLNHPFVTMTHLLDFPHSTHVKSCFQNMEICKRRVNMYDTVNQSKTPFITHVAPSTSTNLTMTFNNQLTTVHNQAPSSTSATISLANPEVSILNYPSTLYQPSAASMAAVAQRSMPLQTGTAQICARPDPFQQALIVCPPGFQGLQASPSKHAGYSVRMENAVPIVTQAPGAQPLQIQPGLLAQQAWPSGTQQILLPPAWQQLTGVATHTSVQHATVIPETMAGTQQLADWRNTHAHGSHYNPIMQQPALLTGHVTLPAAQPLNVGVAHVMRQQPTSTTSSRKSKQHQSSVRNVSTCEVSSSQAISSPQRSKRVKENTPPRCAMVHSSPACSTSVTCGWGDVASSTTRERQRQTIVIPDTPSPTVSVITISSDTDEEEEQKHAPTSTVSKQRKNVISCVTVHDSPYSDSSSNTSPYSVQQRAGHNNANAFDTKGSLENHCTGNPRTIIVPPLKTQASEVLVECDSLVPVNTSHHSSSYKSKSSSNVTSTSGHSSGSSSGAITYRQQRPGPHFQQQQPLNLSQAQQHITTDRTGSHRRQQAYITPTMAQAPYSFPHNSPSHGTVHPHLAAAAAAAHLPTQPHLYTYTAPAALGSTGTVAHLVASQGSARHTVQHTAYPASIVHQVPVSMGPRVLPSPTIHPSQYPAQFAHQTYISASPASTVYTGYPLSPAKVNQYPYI
CHEK2, sequence (O96017 whole entry): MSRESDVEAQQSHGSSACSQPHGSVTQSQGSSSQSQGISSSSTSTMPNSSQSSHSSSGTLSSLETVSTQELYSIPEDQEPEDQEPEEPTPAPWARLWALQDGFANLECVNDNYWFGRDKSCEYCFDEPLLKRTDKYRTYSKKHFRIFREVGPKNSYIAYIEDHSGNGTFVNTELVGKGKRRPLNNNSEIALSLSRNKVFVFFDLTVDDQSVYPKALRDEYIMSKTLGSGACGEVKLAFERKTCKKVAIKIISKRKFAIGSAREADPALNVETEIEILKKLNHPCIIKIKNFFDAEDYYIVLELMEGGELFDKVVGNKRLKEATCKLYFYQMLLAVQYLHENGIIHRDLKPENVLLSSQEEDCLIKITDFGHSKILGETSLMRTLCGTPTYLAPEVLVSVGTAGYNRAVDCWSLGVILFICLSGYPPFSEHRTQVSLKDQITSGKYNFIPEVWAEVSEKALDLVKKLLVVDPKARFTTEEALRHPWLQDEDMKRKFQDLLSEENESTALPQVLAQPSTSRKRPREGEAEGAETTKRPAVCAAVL
TP53RK, sequence (Q96S44 whole entry): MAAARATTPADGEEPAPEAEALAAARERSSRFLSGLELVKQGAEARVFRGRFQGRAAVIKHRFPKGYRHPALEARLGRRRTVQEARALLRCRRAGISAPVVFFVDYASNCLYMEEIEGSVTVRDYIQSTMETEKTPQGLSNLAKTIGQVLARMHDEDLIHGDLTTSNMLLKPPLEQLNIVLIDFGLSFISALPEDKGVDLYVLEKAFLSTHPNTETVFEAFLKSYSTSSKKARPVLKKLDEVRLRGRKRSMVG

COc1nc(N[C@H]2CC[C@H](NS(=O)(=O)CC(C)C)CC2)nc2[nH]nc(N3CCOC[C@H]3C)c12 [compound 39, N-(trans-4-((4-Methoxy-3-((R)-3-methylmorpholino)-1H-pyrazolo[3,4-d]pyrimidin-6-yl)amino)cyclohexyl)-2-methylpropane-1-sulfonamide]
IC50 (PTK2B): ≥ 20 µM | IC50 (PHKG2): ≥ 20 µM | IC50 (CDK7): 2.5 µM | IC50 (TP53RK): ≥ 20 µM | IC50 (TAOK3): ≥ 20 µM | IC50 (TBK1): ≥ 20 µM | IC50 (RPS6KA6): ≥ 20 µM | IC50 (IRAK3): ≥ 20 µM | IC50 (IRAK1): ≥ 20 µM | IC50 (RAF1): ≥ 20 µM | IC50 (CHEK2): ≥ 20 µM | IC50 (EPHA7): ≥ 20 µM | IC50 (CHUK): ≥ 20 µM | IC50 (CDK5): 12 µM | IC50 (LATS1): ≥ 20 µM | IC50 (HIPK2): ≥ 20 µM | IC50 (ULK3): ≥ 20 µM | IC50 (FES): ≥ 20 µM | IC50 (CSNK1A1): ≥ 20 µM | IC50 (NUAK1): ≥ 20 µM | IC50 (NEK1): ≥ 20 µM
